{
  "source": "ChEMBL document CHEMBL1130219",
  "about": "“Structure-activity relationships of 2'-deoxy-2',2'-difluoro-L-erythro-pentofuranosyl nucleosides” (J Med Chem, 1997)",
  "key": {"[1]": {"experiment": "Antiviral activity against human immunodeficiency virus type-1 (HIV-1) in PBM cells", "assay_type": "functional, cell-based", "conditions": "PBMC"}, "Human alphaherpesvirus 2": {"tested_on": "Human alphaherpesvirus 2", "experiment": "Antiviral activity against Herpes simplex virus type-2", "assay_type": "functional, organism-based"}, "Vero": {"tested_on": "Vero", "experiment": "Compound was evaluated for its toxicity by […] assay in vero cells", "assay_type": "functional, cell-based", "conditions": "Chlorocebus sabaeus"}, "Hepatitis B virus": {"tested_on": "Hepatitis B virus", "experiment": "Antiviral activity against Hepatitis-B virus 2.2.15(HBV)", "assay_type": "functional, organism-based", "conditions": "HepG2 2.2.15"}, "Human alphaherpesvirus 1": {"tested_on": "Human alphaherpesvirus 1", "experiment": "Antiviral activity against Herpes simplex virus type-1", "assay_type": "functional, organism-based"}, "[2]": {"experiment": "Compound was evaluated for its toxicity by […] assay in PBM", "assay_type": "functional, Homo sapiens"}, "CCRF-CEM": {"tested_on": "CCRF-CEM", "experiment": "Compound was evaluated for its toxicity by […] assay in CEM", "assay_type": "functional, cell-based", "conditions": "Homo sapiens"}},
  "data": [
    {"molecule": "Nc1nc(=O)n([C@H]2O[C@@H](CO)[C@H](O)C2(F)F)cc1I", "values": [
      {"measurement": "EC50", "setting": "[1]", "result": "> 100", "unit": "µM"},
      {"measurement": "EC50", "setting": "Human alphaherpesvirus 2", "result": "> 100", "unit": "µM"},
      {"measurement": "IC50", "setting": "Vero", "result": "> 100", "unit": "µM"},
      {"measurement": "EC50", "setting": "Hepatitis B virus", "result": "> 10", "unit": "µM"},
      {"measurement": "EC50", "setting": "Human alphaherpesvirus 1", "result": "> 100", "unit": "µM"},
      {"measurement": "IC50", "setting": "[2]", "result": "> 100", "unit": "µM"},
      {"measurement": "IC50", "setting": "CCRF-CEM", "result": "> 100", "unit": "µM"}
    ]},
    {"molecule": "Nc1ncnc2c1ncn2[C@@H]1O[C@@H](CO)[C@H](O)C1(F)F", "values": [
      {"measurement": "EC50", "setting": "[1]", "result": "> 100", "unit": "µM"},
      {"measurement": "EC50", "setting": "Human alphaherpesvirus 2", "result": "> 100", "unit": "µM"},
      {"measurement": "IC50", "setting": "Vero", "result": "> 100", "unit": "µM"},
      {"measurement": "EC50", "setting": "Hepatitis B virus", "result": "> 20", "unit": "µM"},
      {"measurement": "EC50", "setting": "Human alphaherpesvirus 1", "result": "> 100", "unit": "µM"},
      {"measurement": "IC50", "setting": "[2]", "result": "> 100", "unit": "µM"},
      {"measurement": "IC50", "setting": "CCRF-CEM", "result": "> 100", "unit": "µM"}
    ]},
    {"molecule": "O=c1[nH]c(=O)n([C@H]2O[C@@H](CO)[C@H](O)C2(F)F)cc1F", "values": [
      {"measurement": "EC50", "setting": "[1]", "result": "> 100", "unit": "µM"},
      {"measurement": "EC50", "setting": "Human alphaherpesvirus 2", "result": "> 100", "unit": "µM"},
      {"measurement": "IC50", "setting": "Vero", "result": "> 100", "unit": "µM"},
      {"measurement": "EC50", "setting": "Hepatitis B virus", "result": "> 10", "unit": "µM"},
      {"measurement": "EC50", "setting": "Human alphaherpesvirus 1", "result": "> 100", "unit": "µM"},
      {"measurement": "IC50", "setting": "[2]", "result": "> 100", "unit": "µM"},
      {"measurement": "IC50", "setting": "CCRF-CEM", "result": "> 100", "unit": "µM"}
    ]},
    {"molecule": "Nc1nc(=O)n([C@@H]2O[C@@H](CO)[C@H](O)C2(F)F)cc1I", "values": [
      {"measurement": "EC50", "setting": "[1]", "result": "> 100", "unit": "µM"},
      {"measurement": "EC50", "setting": "Human alphaherpesvirus 2", "result": "> 100", "unit": "µM"},
      {"measurement": "IC50", "setting": "Vero", "result": "> 100", "unit": "µM"},
      {"measurement": "EC50", "setting": "Hepatitis B virus", "result": "> 10", "unit": "µM"},
      {"measurement": "EC50", "setting": "Human alphaherpesvirus 1", "result": "> 100", "unit": "µM"},
      {"measurement": "IC50", "setting": "[2]", "result": "> 100", "unit": "µM"},
      {"measurement": "IC50", "setting": "CCRF-CEM", "result": "> 100", "unit": "µM"}
    ]},
    {"molecule": "Cc1cn([C@H]2C[C@H](N=[N+]=[N-])[C@@H](CO)O2)c(=O)[nH]c1=O", "note": "[ZIDOVUDINE]", "values": [
      {"measurement": "EC50", "setting": "[1]", "result": 0.004, "unit": "µM"},
      {"measurement": "EC50", "setting": "Human alphaherpesvirus 2", "result": "> 100", "unit": "µM"},
      {"measurement": "IC50", "setting": "Vero", "result": 29, "unit": "µM"},
      {"measurement": "EC50", "setting": "Hepatitis B virus", "result": "> 10", "unit": "µM"},
      {"measurement": "EC50", "setting": "Human alphaherpesvirus 1", "result": "> 100", "unit": "µM"},
      {"measurement": "IC50", "setting": "[2]", "result": "> 100", "unit": "µM"},
      {"measurement": "IC50", "setting": "CCRF-CEM", "result": 13, "unit": "µM"}
    ]},
    {"molecule": "Nc1ncnc2c1ncn2[C@H]1O[C@@H](CO)[C@H](O)C1(F)F", "values": [
      {"measurement": "EC50", "setting": "[1]", "result": 3.4, "unit": "µM"},
      {"measurement": "EC50", "setting": "Human alphaherpesvirus 2", "result": "> 100", "unit": "µM"},
      {"measurement": "IC50", "setting": "Vero", "result": "> 100", "unit": "µM"},
      {"measurement": "EC50", "setting": "Hepatitis B virus", "result": "> 20", "unit": "µM"},
      {"measurement": "EC50", "setting": "Human alphaherpesvirus 1", "result": "> 100", "unit": "µM"},
      {"measurement": "IC50", "setting": "[2]", "result": "> 100", "unit": "µM"},
      {"measurement": "IC50", "setting": "CCRF-CEM", "result": "> 100", "unit": "µM"}
    ]},
    {"molecule": "O=c1[nH]c(=O)n([C@@H]2O[C@@H](CO)[C@H](O)C2(F)F)cc1F", "values": [
      {"measurement": "EC50", "setting": "[1]", "result": "> 100", "unit": "µM"},
      {"measurement": "EC50", "setting": "Human alphaherpesvirus 2", "result": "> 100", "unit": "µM"},
      {"measurement": "IC50", "setting": "Vero", "result": 100, "unit": "µM"},
      {"measurement": "EC50", "setting": "Hepatitis B virus", "result": "> 10", "unit": "µM"},
      {"measurement": "EC50", "setting": "Human alphaherpesvirus 1", "result": "> 100", "unit": "µM"},
      {"measurement": "IC50", "setting": "[2]", "result": "> 100", "unit": "µM"},
      {"measurement": "IC50", "setting": "CCRF-CEM", "result": "> 100", "unit": "µM"}
    ]}
  ]
}
